Laboratory results: patent publication US8133912B2 (priority 2006, dated 2012)

Columns and labels:
[1] = resolvability (solubility) in ultrapure water; settings: 5 mg scale in 50 μL ultrapure water, stirred
cell growth = format: cell-based
mouse = settings: in vivo, po; cited from earlier work

methyl aquocobyrinic acid heptamethyl ester perchlorate [hydrophobic vitamin B12]
resolvability to water [1]: not completely dissolved

tetramethyl arsenic [TeMA]
IC50 (50% Growth inhibition) (cell growth): 8000 µg/mL
LD50 (50% Lethal dose) (mouse): 900 mg/kg

methyl aquocobyrinic acid sodium perchlorate
resolvability to water [1]: No precipitate occurred
